{
  "source": "patent US7476691B2",
  "about": "“Sulfamate benzothiophene derivatives as steroid sulfatase inhibitors” (Laboratoire Theramex, priority 2003, dated 2009)",
  "key": {"[1]": {"tested_on": "MCF-7 cells", "assay": "Hormono-dependent induced MCF-7 xenografts: volume and weight", "assay_type": "in vivo, mice", "conditions": "oral 0.1 mg/kg/day for 6 weeks", "experimental": "(§1) MCF-7 cells, derived from human breast adenocarcinoma, were injected subcutaneously in ovariectomized athymic nude mice supplemented with estrone sulfate (pellets 0.5 mg/90 day release). Xenograft volumes were determined once weekly. When tumor volumes reached a significant increase, 6,6,7 COUMATE and Ex 55 were orally administered at 0.1 mg/kg/day for 6 weeks.\n(§2) Xenografts were measured, removed, weighed, and deep frozen until the determination of steroid sulfatase activity."}, "[2]": {"target": "T1, steroid sulfatase (Homo sapiens, UniProt P08842)", "T1 construct": "from tissue; host or cells: MCF-7 xenograft tumour removed from athymic nude mice", "T1 sequence (P08842 22-583)": "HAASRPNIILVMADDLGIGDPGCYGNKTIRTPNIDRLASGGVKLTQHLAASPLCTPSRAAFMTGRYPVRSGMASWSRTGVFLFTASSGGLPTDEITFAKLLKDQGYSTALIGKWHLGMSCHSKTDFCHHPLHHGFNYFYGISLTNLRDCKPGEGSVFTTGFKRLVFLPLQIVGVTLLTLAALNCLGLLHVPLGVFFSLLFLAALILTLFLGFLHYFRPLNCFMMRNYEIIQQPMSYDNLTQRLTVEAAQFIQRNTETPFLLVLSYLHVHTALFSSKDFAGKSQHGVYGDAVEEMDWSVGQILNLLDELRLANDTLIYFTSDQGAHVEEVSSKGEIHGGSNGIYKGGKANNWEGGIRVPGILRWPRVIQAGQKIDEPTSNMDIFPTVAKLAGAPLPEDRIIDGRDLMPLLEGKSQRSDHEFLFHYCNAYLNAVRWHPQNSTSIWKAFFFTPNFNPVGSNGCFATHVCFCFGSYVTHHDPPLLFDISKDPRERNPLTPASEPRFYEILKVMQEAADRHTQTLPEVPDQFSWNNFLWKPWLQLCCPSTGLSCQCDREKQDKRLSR", "assay": "Xenograft steroid sulfatase activity", "assay_type": "in vivo, mouse", "conditions": "oral 0.1 mg/kg/day for 6 weeks", "experimental": "as §1, §2"}, "[3]": {"tested_on": "prepubescent female rats", "assay": "Residual estrogenic activity in vivo (uterotrophic assay)", "conditions": "prepubescent female rats, oral, 1 mg/rat/day for 3 days", "protocol": "These compounds were checked for residual estrogenic activity in vivo in the classical uterotrophic assay after 3-day administration by oral route in prepubescent female rats.\nPrepubescent female rats were orally treated at 1 mg/rat/day for 3 days. On the day following the last treatment, uteri were removed and wet weight were recorded.\nThe results are expressed as % of stimulation of uterus weight in comparison with controls."}, "[4]": {"assay": "Serum estrogen levels (E1S and E2) in treated rats", "assay_type": "in vivo, rat", "conditions": "24 h after last administration", "experimental": "(§3) In this study, a last administration was performed 24 hours before the necropsy for E1S and E2 serum levels assays. The uteri were removed, freed of adjacent tissue, wet weighed and immediately deep frozen until the determination of sulfatase activity.\nE1S and E2 levels were determined according to the supplier's standard method (DSL, Webster, Tex., USA)."}, "[5]": {"target": "T2, estrone sulfatase (Rattus norvegicus, UniProt P15589)", "T2 construct": "uteri were thawed, weighed and homogenized; from tissue; host or cells: uterus of animals dosed orally (ex vivo homogenate supernatant)", "T2 sequence (P15589 20-577)": "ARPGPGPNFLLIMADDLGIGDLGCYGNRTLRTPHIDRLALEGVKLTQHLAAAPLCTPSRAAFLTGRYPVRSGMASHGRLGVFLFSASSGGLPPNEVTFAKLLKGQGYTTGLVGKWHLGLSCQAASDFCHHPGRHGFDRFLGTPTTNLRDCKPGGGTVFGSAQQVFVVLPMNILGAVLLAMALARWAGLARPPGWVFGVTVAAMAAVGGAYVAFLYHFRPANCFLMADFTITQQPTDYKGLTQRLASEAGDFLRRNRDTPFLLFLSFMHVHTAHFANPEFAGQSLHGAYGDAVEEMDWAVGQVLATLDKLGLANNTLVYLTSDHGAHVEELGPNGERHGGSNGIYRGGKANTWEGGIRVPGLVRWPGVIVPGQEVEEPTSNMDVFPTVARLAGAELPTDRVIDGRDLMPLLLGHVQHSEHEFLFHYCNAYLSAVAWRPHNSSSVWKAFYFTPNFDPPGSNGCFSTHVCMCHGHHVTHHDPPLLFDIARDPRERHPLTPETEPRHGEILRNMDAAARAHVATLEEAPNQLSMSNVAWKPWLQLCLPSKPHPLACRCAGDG", "assay": "Estrone sulfatase activity in the uterus of treated rats", "assay_type": "in vivo", "experimental": "as §3\nEstrone sulfatase activity was measured according to the method described by Purohit et al., with slight modifications. Briefly, uteri were thawed, weighed and homogenized. Aliquots of the supernatant were treated with dextran-coated charcoal and assayed for sulfatase. E1S activity was assessed after 30 min of incubation with 5 nM of ^3H-E1S and 20 μM of unlabelled E1S as substrate. Radioactivity was measured by LSC.\nEstrone sulfatase activity was expressed as pmol/h/mg protein and reported as percentage of inhibition versus E1S."}, "[6]": {"tested_on": "ovariectomized Wistar female rats", "assay": "Antiuterotrophic/antisulfatase activity: inhibition of E1S stimulated uterus weight", "assay_type": "in vivo, rat", "experimental": "A short model, derived from Purohit's method, was developed for the evaluation in vivo of nonestrogenic steroid sulfatase inhibitors.\nWistar female rats were ovariectomized and left to rest for 4 weeks. Prior to treatment, the absence of cyclicity was checked by vaginal smears.\nAnimals were supplemented with estrone sulfate (E1S) at 50 μg/kg/day s.c., alone or combined with oral administration of potential sulfatase inhibitors, at 1 mg/kg/day for 4 days. The uteri were removed, freed of adjacent tissue and wet weighed.\nThe results are expressed as % of inhibition of the E1S induced stimulation.\nThe activity of Ex 55 on E1S stimulated uterus weight was evaluated in relation to the standard inhibitor 6,6,7 COUMATE from 0.03 mg/kg/day to 1 mg/kg/day p.o.\nas §3"}, "[7]": {"conditions": "MCF-7 xenografts, nude mice with E1S pellet"}},
  "data": [
    {"smiles": "NS(=O)(=O)Oc1ccc2c3c(c(=O)oc2c1)CCCCC3", "note": "[6,6,7-COUMATE, reference compound]", "values": [
      {"measurement": "Xenograft volume after 6 week treatment", "setting": "[1]; [7]", "value": "1854 ± 243", "unit": "mm^3"},
      {"measurement": "Xenograft weight after 6 week treatment", "setting": "[1]; [7]", "value": "1467 ± 191", "unit": "mg"},
      {"measurement": "inhibition of the E1S induced stimulation (xenograft volume)", "setting": "[1]", "value": "did not inhibit"},
      {"measurement": "inhibition of xenograft weight", "setting": "[1]", "value": "did not inhibit"},
      {"measurement": "Xenograft steroid sulfatase activity", "setting": "[2]; MCF-7 xenografts", "value": "540 ± 54", "unit": "pmol/h/mg protein"},
      {"measurement": "inhibition at 0.1 mg/kg/day", "setting": "[2]; read-out: inhibition of intratumoral steroid sulfatase activity", "value": 67, "unit": "%"},
      {"measurement": "% stimulation of uterus weight in comparison with controls", "setting": "[3]", "value": 3, "unit": "%"},
      {"measurement": "E1S levels (serum)", "setting": "[4]; 0.03 mg/kg/day p.o.", "value": "24 ± 3.1", "unit": "ng/mL"},
      {"measurement": "E2 levels (serum)", "setting": "[4]; 0.03 mg/kg/day p.o.", "value": "33 ± 5.8", "unit": "pg/mL"},
      {"measurement": "E1S levels (serum)", "setting": "[4]; 0.1 mg/kg/day p.o.", "value": "26 ± 2.6", "unit": "ng/mL"},
      {"measurement": "E2 levels (serum)", "setting": "[4]; 0.1 mg/kg/day p.o.", "value": "28 ± 2.5", "unit": "pg/mL"},
      {"measurement": "E1S levels (serum)", "setting": "[4]; 0.3 mg/kg/day p.o.", "value": "59 ± 6.4", "unit": "ng/mL"},
      {"measurement": "E2 levels (serum)", "setting": "[4]; 0.3 mg/kg/day p.o.", "value": "18 ± 1.1", "unit": "pg/mL"},
      {"measurement": "E1S levels (serum)", "setting": "[4]; 1 mg/kg/day p.o.", "value": "80 ± 5.7", "unit": "ng/mL"},
      {"measurement": "E2 levels (serum)", "setting": "[4]; 1 mg/kg/day p.o.", "value": "16 ± 1.5", "unit": "pg/mL"},
      {"measurement": "Estrone sulfatase activity in the uterus, percentage of inhibition versus E1S", "setting": "[5]; 0.03 mg/kg/day p.o.", "value": 36, "unit": "%"},
      {"measurement": "Estrone sulfatase activity in the uterus, percentage of inhibition versus E1S", "setting": "[5]; 0.1 mg/kg/day p.o.", "value": 78, "unit": "%"},
      {"measurement": "Estrone sulfatase activity in the uterus, percentage of inhibition versus E1S", "setting": "[5]; 0.3 mg/kg/day p.o.", "value": 96, "unit": "%"},
      {"measurement": "Estrone sulfatase activity in the uterus, percentage of inhibition versus E1S", "setting": "[5]; 1 mg/kg/day p.o.", "value": 97, "unit": "%"},
      {"measurement": "Inhibition of E1S stimulated uterus weight", "setting": "[6]; 0.03 mg/kg/day p.o.", "value": 0, "unit": "%"},
      {"measurement": "Inhibition of E1S stimulated uterus weight", "setting": "[6]; 0.1 mg/kg/day p.o.", "value": 13, "unit": "%"},
      {"measurement": "Inhibition of E1S stimulated uterus weight", "setting": "[6]; 0.3 mg/kg/day p.o.", "value": 52, "unit": "%"},
      {"measurement": "Inhibition of E1S stimulated uterus weight", "setting": "[6]; 1 mg/kg/day p.o.", "value": 84, "unit": "%"},
      {"measurement": "% inhibition of the E1S induced stimulation (uterus weight)", "setting": "[6]; ovariectomized rats, E1S 50 μg/kg/day s.c., compound oral 1 mg/kg/day for 4 days", "value": 86, "unit": "%"}
    ]}
  ]
}
